Data: paper PMC10669433 (Antibiotics, 2023)
“Also recorded” adds a separate entry of the source.

Experiments:
[1] = test system: cardiovascular prosthetic infections (PVE, CEDI, PVGI); experiment: Clinical cure in patients with cardiovascular prosthetic infections treated with dalbavancin as sequential therapy (retrospective case series); format: in vivo, human
Procedure: Data were collected from May 2019 to May 2023 at the Modena University Hospital, a tertiary care hospital in Northern Italy. Cardiovascular infections included PVE, CEDI, and PVGI.
(§1) Clinical evaluation was carried out at the end of treatment (EOT) and at the end of a six-month follow-up. Primary outcome was clinical cure, defined as resolution of all clinical signs and symptoms of infection, with or without radiological improvement. […] Finally, for primary outcome, a comparison between patients treated with standard (the 1500 mg infusion regimen at day 1 and day 8, with subsequent 1000 mg administrations every 2 weeks) vs. TDM-guided approach was performed.

[2] = test system: cardiovascular prosthetic infections (PVE, CEDI, PVGI); experiment: Microbiological cure / relapse (blood cultures) in the case series; format: in vivo, human
Procedure: as §1

[3] = Adverse events in the case series; format: in vivo, human
[4] = test system: cardiovascular prosthetic infections (PVE, CEDI, PVGI); experiment: 18F-FDG PET/TC radiological improvement; format: in vivo, human; conditions: 18F-FDG PET/TC available for nine patients; 6/9
Text: For diagnosis, all patients underwent clinical, microbiological, and echocardiographic evaluation (transthoracic echocardiography and transesophageal echocardiography [TEE]). Major echocardiographic criteria included vegetation, abscess, pseudoaneurysm, intracardiac fistula, valvular perforation or aneurysm, and new partial dehiscence of prosthetic valve. In addition, according to clinical indication, computed tomography (CT) angiography or cardiac one and/or 18F-fluorodeoxyglucose (FDG)-positron emission tomography (PET) PET were also performed.
Data collection included demographic information, Charlson Comorbidity Index (CCI), type and site of infection, microbiological isolation, prior antibiotic treatment, surgical procedure (performed or not, complete or partial), laboratory variables, and when available, radiological improvement (fluorodeoxyglucose positron emission tomography (FDG-PET) alone or in combination with computed tomographic angiography (CTA) to assess optimal duration of antibiotic treatment at follow-up).

[5] = cited from earlier work
Text: It is associated with good tissue penetration, including staphylococcal biofilms, making this antibiotic a promising agent to treat biofilm-mediated infections.

[6] = test system: vancomycin-resistant S. aureus (VRSA); conditions: cited from earlier work
Text: (§2) Dalbavancin is a long-acting parenteral lipoglycopeptide, a semisynthetic derivative of teicoplanin. It is characterized by a large spectrum of action against Gram-positive bacteria, such as Staphylococcus aureus (including methicillin-resistant S. aureus, but also strains with intermediate sensitivity to vancomycin), Streptococcus agalactiae, Streptococcus pyogenes, Streptococcus anginosus, vancomycin-sensitive Enterococcus faecium, and Enterococcus faecalis; it is poorly active against vancomycin-resistant S. aureus (VRSA), and it is not active against vancomycin-resistant enterococci with t ...

[7] = test system: vancomycin-resistant enterococci with the Van A phenotype; conditions: cited from earlier work
Text: as §2

infective endocarditis [8] = conditions: review, sequential dalbavancin in infective endocarditis, 170 patients; cited from earlier work
infective endocarditis [9] = test system: infective endocarditis; design: method as in PMID 37442488, PMID 30389305; conditions: 124 subjects with infective endocarditis; cited from earlier work
S. aureus = conditions: dalbavancin group vs 22% in the SOC group, p = 0.484; cited from earlier work
Text: Unfortunately, all patients received dalbavancin as sequential therapy, with a medi ...

## CN[C@H]1C(=O)N[C@@H]2Cc3ccc(cc3)Oc3cc4cc(c3O[C@@H]3O[C@H](C(=O)O)[C@@H](O)[C@H](O)[C@H]3NC(=O)CCCCCCCCC(C)C)Oc3ccc(cc3Cl)[C@@H](O)[C@@H]3NC(=O)[C@H](NC(=O)[C@@H]4NC(=O)[C@@H](NC2=O)c2cc(cc(O)c2Cl)Oc2cc1ccc2O)c1ccc(O)c(c1)-c1c(O[C@H]2O[C@H](CO)[C@@H](O)[C@H](O)[C@@H]2O)cc(O)cc1[C@@H](C(=O)NCCCN(C)C)NC3=O [dalbavancin]
[1]; 1/1 patient
  Clinical cure according to causative pathogen: E. faecalis: 100%
  Clinical cure according to causative pathogen: G. morbillorum: 100%
[1]; 2/2 patients
  Clinical cure according to causative pathogen: CoNS: 100%
[1]; 3/3 patients
  Clinical cure according to causative pathogen: viridans Streptococcus: 100%
[1]; 3/5 patients
  Clinical cure according to causative pathogen: S. aureus: 60%
  Clinical success in patients treated without TDM: 60%
[1]; 6/9 patients
  Clinical cure, suppressive antibiotic therapy without complete source control: 66.6%
[1]; CEDI, end of treatment
  Clinical cure at the EOT, cardiac implantable electronic devices infections (n = 3), %: (66.6) %
  Clinical cure at the EOT, cardiac implantable electronic devices infections (n = 3), patients/evaluable: 2/3
[1]; PVE, end of treatment
  Clinical cure at the EOT, prosthetic valve endocarditis (n = 8), %: (75) %
  Clinical cure at the EOT, prosthetic valve endocarditis (n = 8), patients/evaluable: 6/8
[1]; PVGI, end of treatment
  Clinical cure at the EOT, prosthetic vascular grafts infections (n = 6), %: (83.3) %
  Clinical cure at the EOT, prosthetic vascular grafts infections (n = 6), patients/evaluable: 5/6
[1]; end of treatment, 10/13 patients
  Clinical cure at the EOT (n = 13), %: (76.9) %
[1]; end of treatment, dalbavancin 1500 mg day 1 and day 8, then further doses (fixed or TDM-guided), after first-line antibiotics
  Clinical cure at the EOT (n = 13), patients cured/evaluable: 10/13
[1]; implant removal, 4/4 patients
  Clinical cure, patients who underwent the complete source control intervention: 100%
[1]; patients with TDM-guided redosing
  Clinical cure in TDM-guided group (n = 8), patients cured/evaluable: 7/8
[1]; single patients
  Clinical Success End of Treatment: Yes (7 w); also recorded: Yes (25 w); also recorded: Yes (18 w); also recorded: Yes (29 w); also recorded: Yes (14 w); also recorded: Yes (47 w); also recorded: Yes (9 w); also recorded: No (16 w); also recorded: Yes (10 w); also recorded: Yes (20 w); also recorded: No (53 w); also recorded: No (12 w)
[1]; single patients, one table row per patient
  Clinical Success Six Months Follow-Up: Yes and No
[1]; six-month follow-up
  Clinical cure at six months of follow-up (n = 12), %: (75) %
  Clinical cure at six months of follow-up (n = 12), patients cured/evaluable: 9/12
[2]; after dalbavancin interruption
  Microbiological relapse after treatment interruption (n = 13), patients/evaluable: 1/13
[2]; end of treatment, sustained negativity of blood cultures
  Microbiological cure at the EOT (n = 13), patients/evaluable: 10/13
[3]; 14 patients, long-term therapy
  Tolerability: well tolerated
[3]; of N = 14 patients
  Adverse effect reactions: impaired renal function, %: (7.1) %
  Adverse effect reactions: rash, %: (7.1) %
[4]
  Radiological improvement with a marked SUV reduction: 66.6%
[5]
  elimination half-life: 14 days
  total protein binding: 93%
[5]; no active metabolites
  clearance route: predominantly renal
[6]
  activity against vancomycin-resistant S. aureus (VRSA): poorly active
[7]
  activity against vancomycin-resistant enterococci with the Van A phenotype: not active
Infective endocarditis [8]
  overall clinical efficacy: around 90%
Infective endocarditis [9]
  clinical success rate at 12 months of follow-up: 95.2%
S. aureus
  treatment-related readmission rates within 30 days: 15%
